Reference: paper PMC12125102, “The “specific” P-glycoprotein inhibitor zosuquidar (LY335979) also weakly inhibits human organic cation transporters” (Naunyn-Schmiedeberg's Archives of Pharmacology, 2024)

Target: T1, OCT1 (organic cation transporter 1) (Homo sapiens, UniProt O15245)
T1 construct: gene SLC22A1
T1 sequence (O15245 1-554): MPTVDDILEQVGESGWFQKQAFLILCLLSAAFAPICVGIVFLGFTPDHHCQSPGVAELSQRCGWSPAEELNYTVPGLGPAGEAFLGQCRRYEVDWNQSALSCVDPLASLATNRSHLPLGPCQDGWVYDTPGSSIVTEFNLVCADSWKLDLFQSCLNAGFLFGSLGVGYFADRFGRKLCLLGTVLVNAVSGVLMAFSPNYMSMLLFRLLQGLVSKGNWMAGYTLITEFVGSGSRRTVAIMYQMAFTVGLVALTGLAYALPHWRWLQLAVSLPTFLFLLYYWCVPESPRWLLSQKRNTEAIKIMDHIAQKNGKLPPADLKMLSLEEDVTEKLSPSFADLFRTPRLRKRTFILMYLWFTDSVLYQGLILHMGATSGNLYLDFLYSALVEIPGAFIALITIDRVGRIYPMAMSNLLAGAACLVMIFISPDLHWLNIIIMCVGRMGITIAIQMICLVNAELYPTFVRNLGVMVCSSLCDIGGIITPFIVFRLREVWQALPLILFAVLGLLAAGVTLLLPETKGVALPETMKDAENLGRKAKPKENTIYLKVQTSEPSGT
Assay: inhibition of metformin uptake in HEK293-Flp-In-OCT1 cells, […] min pre-incubation, UPLC-MS/MS
Type: cell-based

IC50: 7.5 ± 3.7 µM
Structure (SMILES): O[C@@H](COc1cccc2ncccc12)CN1CCN([C@@H]2c3ccccc3[C@@H]3[C@H](c4ccccc42)C3(F)F)CC1 [zosuquidar]
